Laboratory results: US10071979B2, “Process of producing cycloalkylcarboxamido-indole compounds” (Vertex Pharmaceuticals Incorporated, priority 2010, dated 2018)

Biological target: T1, ΔF508-CFTR (Homo sapiens, UniProt P13569, DEL508-508)
T1 construct: expressed in transfected cells
Test: Assays for detecting and measuring ΔF508-CFTR correction properties (membrane potential optical assay, FRET voltage-sensor dyes)
Format: cell-based
Settings: NIH3T3 mouse fibroblasts stably expressing ΔF508-CFTR; percent activity bins
From the text: Assays for Detecting and Measuring ΔF508-CFTR Correction Properties of Compounds
Membrane Potential Optical Methods for Assaying ΔF508-CFTR Modulation Properties of Compounds
The optical membrane potential assay utilized voltage-sensitive FRET sensors described by Gonzalez and Tsien (See, Gonzalez, J. E. and R. Y. Tsien (1995) “Voltage sensing by fluorescence resonance energy transfer in single cells” Biophys J 69(4): 1272-80, and Gonzalez, J. E. and R. Y. Tsien (1997) “Improved indicators of cell membrane potential that use fluorescence resonance energy transfer” Chem Biol 4(4): 269-77) in combination with instrumentation for measuring fluorescence changes such as the Voltage/Ion Probe Reader (VIPR) (See, Gonzalez, J. E., K. Oades, et al. (1999) “Cell-based assays and instrumentation for screening ion-channel targets” Drug Discov Today 4(9): 431-439).
These voltage sensitive assays are based on the change in fluorescence resonant energy transfer (FRET) between the membrane-soluble, voltage-sensitive dye, DiSBAC2(3), and a fluorescent phospholipid, CC2-DMPE, which is attached to the outer leaflet of the plasma membrane and acts as a FRET donor. […] The changes in fluorescence emission were monitored using VIPR™ II, which is an integrated liquid handler and fluorescent detector designed to conduct cell-based screens in 96- or 384-well microtiter plates. […]

T1 sequence (P13569 with tags, fused parts or gaps DEL508-508): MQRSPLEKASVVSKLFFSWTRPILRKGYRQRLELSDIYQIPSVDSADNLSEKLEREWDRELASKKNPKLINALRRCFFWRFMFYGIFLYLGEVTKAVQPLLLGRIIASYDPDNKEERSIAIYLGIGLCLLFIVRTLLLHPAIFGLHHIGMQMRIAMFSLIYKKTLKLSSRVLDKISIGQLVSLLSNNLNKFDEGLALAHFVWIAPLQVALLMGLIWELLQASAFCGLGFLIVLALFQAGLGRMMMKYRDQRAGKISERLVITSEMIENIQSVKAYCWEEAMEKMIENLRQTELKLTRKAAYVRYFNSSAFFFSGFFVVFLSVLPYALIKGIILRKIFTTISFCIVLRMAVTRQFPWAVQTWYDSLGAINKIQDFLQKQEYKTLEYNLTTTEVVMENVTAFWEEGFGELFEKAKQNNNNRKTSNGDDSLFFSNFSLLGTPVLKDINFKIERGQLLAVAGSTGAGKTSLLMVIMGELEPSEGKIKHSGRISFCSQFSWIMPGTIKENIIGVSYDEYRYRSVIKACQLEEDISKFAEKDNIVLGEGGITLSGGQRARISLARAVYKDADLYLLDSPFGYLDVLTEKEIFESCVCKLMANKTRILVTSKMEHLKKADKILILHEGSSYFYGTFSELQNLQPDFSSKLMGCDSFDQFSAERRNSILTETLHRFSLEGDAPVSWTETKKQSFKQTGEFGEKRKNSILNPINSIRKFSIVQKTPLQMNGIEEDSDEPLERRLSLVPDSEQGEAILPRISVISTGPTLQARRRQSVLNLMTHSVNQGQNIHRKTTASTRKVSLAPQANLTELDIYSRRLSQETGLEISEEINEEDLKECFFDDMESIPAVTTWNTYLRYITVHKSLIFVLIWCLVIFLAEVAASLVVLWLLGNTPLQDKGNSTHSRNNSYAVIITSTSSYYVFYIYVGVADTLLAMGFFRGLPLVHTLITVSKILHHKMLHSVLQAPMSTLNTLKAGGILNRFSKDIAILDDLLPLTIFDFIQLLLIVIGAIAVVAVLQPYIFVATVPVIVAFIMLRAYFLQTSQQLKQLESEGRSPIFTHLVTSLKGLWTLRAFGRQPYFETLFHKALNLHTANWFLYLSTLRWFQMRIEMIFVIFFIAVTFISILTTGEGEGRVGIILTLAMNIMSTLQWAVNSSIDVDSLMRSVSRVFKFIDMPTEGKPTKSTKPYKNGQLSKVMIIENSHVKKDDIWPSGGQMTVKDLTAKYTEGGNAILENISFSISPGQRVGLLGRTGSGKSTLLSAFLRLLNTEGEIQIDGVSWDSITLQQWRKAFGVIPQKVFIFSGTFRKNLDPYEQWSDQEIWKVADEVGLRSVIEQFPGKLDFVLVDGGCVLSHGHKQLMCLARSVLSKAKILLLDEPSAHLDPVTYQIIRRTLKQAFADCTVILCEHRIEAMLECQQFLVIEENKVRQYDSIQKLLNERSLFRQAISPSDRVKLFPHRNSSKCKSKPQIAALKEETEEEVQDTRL

In the case of `CC(C)(CO)c1cc2cc(NC(=O)C3(c4ccc5c(c4)OC(F)(F)O5)CC3)c(F)cc2n1C[C@@H](O)CO` [Compound 1, (R)-1-(2,2-difluorobenzo[d][1,3]dioxol-5-yl)-N-(1-(2,3-dihydroxypropyl)-6-fluoro-2-(1-hydroxy-2-methylpropan-2-yl)-1H-indol-5-yl)cyclopropanecarboxamide], the “Binned MaxEfficacy (PercentActivity)” value is reported as “+++ (100.0 < +++)”.
